Data as given in patent US8053447B2, “11β-hydroxysteroid dehydrogenase type 1 active compounds” (High Point Pharmaceuticals, LLC, priority 2006, dated 2011).

Molecular target: T1, h-11βHSD1 (Homo sapiens, UniProt P28845)
T1 construct: made in house
Assay: 11βHSD1 enzyme assay (scintillation proximity assay, 3H-cortisone to 3H-cortisol)
Format: biochemical
Conditions: extract of yeast transformed with h-11βHSD1; 120 nM 3H-cortisone, 4 mM β-NADPH, 60 min at 30° C., SPA
Protocol: Pharmacological Methods 11βHSD1 Enzyme Assay Materials
^3H-cortisone and anti-rabbit Ig coated scintillation proximity assay (SPA) beads were purchased from Amersham Pharmacia Biotech, β-NADPH was from Sigma and rabbit anti-cortisol antibodies were from Fitzgerald. An extract of yeast transformed with h-11βHSD1 (Hult et al., FEBS Lett, 441, 25 (1998)) was used as the source of enzyme. The test compounds were dissolved in DMSO (10 mM). All dilutions were performed in a buffer containing 50 mM TRIS-HCl (Sigma Chemical Co), 4 mM EDTA (Sigma Chemical Co), 0.1% BSA (Sigma Chemical Co), 0.01% Tween-20 (Sigma Chemical Co) and 0.005% bacitracin (Novo Nordisk A/S), pH=7.4. Optiplate 96 wells plates were supplied by Packard. The amount of ^3H-cortisol bound to the SPA beads was measured on TopCount NXT, Packard.
h-11βHSD1, 120 nM ^3H-cortisone, 4 mM β-NADPH, antibody (1:200), serial dilutions of test compound and SPA particles (2 mg/well) were added to the wells. The reaction was initiated by mixing the different components and was allowed to proceed under shaking for 60 min at 30° C. The reaction was stopped be the addition of 10 fold excess of a stopping buffer containing 500 μM carbenoxolone and 1 μM cortisone. Data was analysed using GraphPad Prism software.

T1 sequence (P28845 whole entry): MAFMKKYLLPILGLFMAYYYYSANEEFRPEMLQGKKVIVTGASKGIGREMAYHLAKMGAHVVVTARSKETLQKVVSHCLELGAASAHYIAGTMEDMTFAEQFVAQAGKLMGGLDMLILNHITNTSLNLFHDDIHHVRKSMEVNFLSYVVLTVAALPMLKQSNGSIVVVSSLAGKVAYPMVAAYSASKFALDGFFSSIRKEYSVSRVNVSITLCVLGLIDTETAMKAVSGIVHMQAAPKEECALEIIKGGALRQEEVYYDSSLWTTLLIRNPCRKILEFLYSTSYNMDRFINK

| IC50 [nM] | Structure (SMILES) |
| --- | --- |
| 266 | O=C(O)c1cccc(S(=O)(=O)N2CCC(COc3ccc(C(=O)N4CCCC5CCCCC54)cc3)CC2)c1 (stereo not drawn) [Example 8f, 3-{4-[4-(Octahydro-quinoline-1-carbonyl)-phenoxymethyl]-piperidine-1-sulfonyl}-benzoic acid] |
| 588 | CC1(C)CC2CC(C)(CN2C(=O)c2ccc(O[C@H]3CC[C@@H](C(=O)O)CC3)cc2)C1 (stereo partly drawn) [Example 5a, Cis-4-[4-(1,3,3-trimethyl-6-aza-bicyclo [3.2.1]octane-6-carbonyl)-phenoxy]-cyclo-hexanecarboxylic acid] |
| 43 | O=C(NC1C2CC3CC(C2)CC1C3)c1ccc(N2CC3CC2CO3)cc1 (stereo not drawn) [Example H, 4-(2-Oxa-5-aza-bicyclo[2.2.1]hept-5-yl)-N-adamantan-2-yl-benzamide] |
| 1180 | O=C(c1ccc(OC2CCN(C(=O)c3ccc(Cl)nc3)C2)cc1)N1CC2CCC(CC2)C1 (stereo not drawn) [Example G, {3-[4-(3-Aza-bicyclo[3.2.2]nonane-3-carbonyl)-phenoxy]-pyrrolidin-1-yl}-(6-chloro-pyridin-3-yl)-methanone] |
| 205 | O=C(NC1C2CC3CC(C2)CC1C3)c1ccc(OC2CCN(C(=O)C3CC3)CC2)cc1 (stereo not drawn) [Example 1b, 4-(1-Cyclopropanecarbonyl-piperidin-4-yloxy)-N-ada-mantan-2-yl-benzamide] |
| 96 | O=C(NC1C2CC3CC(C2)CC1C3)c1ccc(O[C@H]2CC[C@@H](NS(=O)(=O)c3ccccn3)CC2)cc1 (stereo partly drawn) [Example 3c, Cis-N-Adamantan-2-yl-4-[4-(pyridine-2-sulfonylamino)-cyclohexyloxy]-benzamide] |
| 678 | O=C(NC1C2CC3CC(C2)CC1C3)c1ccc(OC2CCC(C(=O)O)CC2)cc1 (mixture of isomers) [Example 4a, Cis/trans 4-[4-adamantan-2-ylcarbamoyl)-phenoxy]-cyclohexanecarboxylic acid] |
| 134 | O=C(c1ccc(OCC2CCN(S(=O)(=O)c3ccccn3)CC2)cc1)N1CCCC2CCCCC21 (stereo not drawn) [Example F, (Octahydro-quinolin-1-yl)-{4-[1-(pyridine-2-sulfonyl)-piperidin-4-ylmethoxy]-phenyl}-methanone] |
| 359 | O=C(c1ccc(N2[C@@H]3CC[C@H]2CC(Oc2ccccn2)C3)cc1)N1CCCC2CCCCC21 (stereo partly drawn) [Example 2h, (Octahydro-quinolin-1-yl)-{4-[(1S,5R)-3-(pyridin-2-yloxy)-8-aza-bicyclo[3.2.1]oct-8-yl]-phenyl}-methanone] |
| 405 | O=C(O)C1CCC(Oc2ccc(C(=O)N3CCCC4CCCCC43)cc2)CC1 (stereo not drawn) [Example 3a, 4-[4-(Octahydro-quinoline-1-carbonyl)-phenoxy]-cyclohexanecarboxylic acid] |
| 482 | C=CCOC(=O)c1ccc(OCC2CCC(Oc3ccc(C(=O)NC4C5CC6CC(C5)CC4C6)cc3)CC2)cc1 (stereo not drawn) [Example 4e, 4-{4-[4-(Adamantan-2-yl-carbamoyl)-phenoxy]-cyclo-hexylmethoxy}-benzoic acid allyl ester] |
| 284 | CC(C)CC(=O)N1CCC(Oc2ccc(C(=O)NC3C4CC5CC(C4)CC3C5)cc2)CC1 (stereo not drawn) [Example 2b, 4-[1-(3-Methyl-butyryl)-piperidin-4-yloxy]-N-ada-mantan-2-yl-benzamide] |
| 1450 | O=C(O)C1CCC(Oc2ccc(C(=O)N3CC4CCC(CC4)C3)cc2)CC1 (stereo not drawn) [Example 2a, 4-[4-(3-Aza-bicyclo[3.2.2]-nonane-3-carbonyl)-phen-oxy]-cyclohexane carbox-ylic acid] |
| 111 | CN(C)C(=O)C1CCC(Oc2ccc(C(=O)N3CC4(C)CC3CC(C)(C)C4)cc2)CC1 (stereo not drawn) [Example 12a, 4-[4-(1,1,3,3-Trimethyl-6-aza-bicyclo[3.2.1]octane-6-carbonyl)-phenoxy]-cyclo-hexane carboxylic acid di-methylamide] |

| Structure (SMILES) | IC50 [nM] |
| --- | --- |
| O=C(c1ccc(OC2CCN(C(=O)C3CC3)CC2)cc1)N1CC2CCC(CC2)C1 [Example B, (3-Aza-bicyclo[3.2.2]non-3-yl)-[4-(1-cyclopropane-carbonyl-piperidin-4-yloxy)-phenyl]-methanone] | 1350 |
